Measured values from patent publication US20250186437A1, “CARBOLINE COMPOUNDS AND USE THEREOF” (PTC Therapeutics, Inc., priority 2021, published 2025).

What follows are molecules tested on MOLM-13 cells (assay: MOLM-13 Cell Proliferation Assay (indicator of DHODH inhibition)). Conditions: Homo sapiens, 72 Hours of culture, CellTiter-Glo, no uridine.
Type: cell-based
Method in brief: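 Low-passage MOLM-13 cells (10^4/well) in RPMI 1640 + 10% FBS exposed to compound (0.5% DMSO final) for 72 h at 37 °C, 5% CO2. Viability read by CellTiter-Glo luminescence; growth reflects de novo pyrimidine synthesis dependent on DHODH.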

| IC50 | Structure (SMILES) |
| --- | --- |
| 3 nM | Cc1nc(C)nc(N2CCc3c([nH]c4ccc(Cl)cc34)C2c2ccc(N3CCOCC3)nc2F)n1 (stereo not drawn) [Compound 459, 6-chloro-2-(4,6-dimethyl-1,3,5-triazin-2-yl)-1-[2-fluoro-6-(morpholin-4-yl)pyridin-3-yl]-2,3,4,9-tetrahydro-1H-pyrido[3,4-b]indole] |
| 0.8 nM | Cc1ccc([C@H]2c3[nH]c4ccc(Cl)cc4c3CCN2c2ncnc(C(F)(F)F)n2)c(F)c1F [Compound 461, (1S)-6-chloro-1-(2,3-difluoro-4-methylphenyl)-2-[4-(trifluoromethyl)-1,3,5-triazin-2-yl]-2,3,4,9-tetrahydro-1H-pyrido[3,4-b]indole] |
| 1.1 nM | Cc1ccc([C@H]2c3[nH]c4ccc(Cl)cc4c3CCN2c2ncc(Br)cn2)c(F)c1F [Compound 463, (1S)-2-(5-bromopyrimidin-2-yl)-6-chloro-1-(2,3-difluoro-4-methylphenyl)-2,3,4,9-tetrahydro-1H-pyrido[3,4-b]indole] |
| 0.2 nM | Cc1nc(N2CCc3c([nH]c4ccc(Cl)cc34)[C@@H]2c2ccc(C)c(F)c2F)nc(C(F)(F)F)n1 [Compound 464, (1S)-6-chloro-1-(2,3-difluoro-4-methylphenyl)-2-[4-methyl-6-(trifluoromethyl)-1,3,5-triazin-2-yl]-2,3,4,9-tetrahydro-1H-pyrido[3,4-b]indole] |
| 0.7 nM | Cc1ccc([C@H]2c3[nH]c4ccc(Cl)cc4c3CCN2c2nc(C)nc(C(F)(F)F)n2)cc1 [Compound 467, (1S)-6-chloro-1-(4-methylphenyl)-2-[4-methyl-6-(trifluoromethyl)-1,3,5-triazin-2-yl]-2,3,4,9-tetrahydro-1H-pyrido[3,4-b]indole] |
| 5.2 nM | Cc1nc(C)nc(N2CCc3c([nH]c4ccc(Cl)cc34)C2c2ccc(Cl)cc2F)n1 (stereo not drawn) [Compound 468, 6-chloro-1-(4-chloro-2-fluorophenyl)-2-(4,6-dimethyl-1,3,5-triazin-2-yl)-2,3,4,9-tetrahydro-1H-pyrido[3,4-b]indole] |
| 4 nM | Cc1ccc(C2c3[nH]c4ccc(Cl)cc4c3CCN2c2nccc(-c3ccccc3)n2)c(F)c1F (stereo not drawn) [Compound 469, 6-chloro-1-(2,3-difluoro-4-methylphenyl)-2-(4-phenylpyrimidin-2-yl)-2,3,4,9-tetrahydro-1H-pyrido[3,4-b]indole] |
| 3.1 nM | Clc1ccc2[nH]c3c(c2c1)CCN(c1ncc(Br)cn1)[C@H]3c1cnc(N2CCOCC2)nc1 [Compound 470, (1S)-2-(5-bromopyrimidin-2-yl)-6-chloro-1-[2-(morpholin-4-yl)pyrimidin-5-yl]-2,3,4,9-tetrahydro-1H-pyrido[3,4-b]indole] |
| 2.5 nM | Cc1ccc([C@H]2c3[nH]c4ccc(Cl)cc4c3CCN2c2ncc(-c3ccccc3)cn2)c(F)c1F [Compound 471, (1S)-6-chloro-1-(2,3-difluoro-4-methylphenyl)-2-(5-phenylpyrimidin-2-yl)-2,3,4,9-tetrahydro-1H-pyrido[3,4-b]indole] |
| 7.6 nM | Cc1ccc([C@H]2c3[nH]c4ccc(Cl)cc4c3CCN2c2nc(F)nc(N3CCN(C)CC3)n2)c(F)c1F [Compound 476, (1S)-6-chloro-1-(2,3-difluoro-4-methylphenyl)-2-[4-fluoro-6-(4-methylpiperazin-1-yl)-1,3,5-triazin-2-yl]-2,3,4,9-tetrahydro-1H-pyrido[3,4-b]indole] |
| 1.1 nM | Cc1ccc([C@H]2c3[nH]c4ccc(Cl)cc4c3CCN2c2nc(N3CCN(C)CC3)nc(C(F)(F)F)n2)c(F)c1F [Compound 477, (1S)-6-chloro-1-(2,3-difluoro-4-methylphenyl)-2-[4-(4-methylpiperazin-1-yl)-6-(trifluoromethyl)-1,3,5-triazin-2-yl]-2,3,4,9-tetrahydro-1H-pyrido[3,4-b]indole] |
| 2.6 nM | CN1CCN(c2ncc([C@H]3c4[nH]c5ccc(Cl)cc5c4CCN3c3nccc(C(F)(F)F)n3)cn2)CC1 [Compound 484, (1S)-6-chloro-1-[2-(4-methylpiperazin-1-yl)pyrimidin-5-yl]-2-[4-(trifluoromethyl)pyrimidin-2-yl]-2,3,4,9-tetrahydro-1H-pyrido[3,4-b]indole] |

The remaining lines, values behind:

| Structure (SMILES) | IC50 |
| --- | --- |
| FC1(F)CN(c2ccnc(N3CCc4c([nH]c5ccc(Cl)cc45)[C@@H]3c3cnc(N4CCOCC4)nc3)n2)C1 [Compound 456, (1S)-6-chloro-2-[4-(3,3-difluoroazetidin-1-yl)pyrimidin-2-yl]-1-[2-(morpholin-4-yl)pyrimidin-5-yl]-2,3,4,9-tetrahydro-1H-pyrido[3,4-b]indole] | 17.1 nM |
| Cc1nc(N2CC(F)(F)C2)nc(N2CCc3c([nH]c4ccc(Cl)cc34)[C@@H]2c2cnc(N3CCOCC3)nc2)n1 [Compound 457, (1S)-6-chloro-2-[4-(3,3-difluoroazetidin-1-yl)-6-methyl-1,3,5-triazin-2-yl]-1-[2-(morpholin-4-yl)pyrimidin-5-yl]-2,3,4,9-tetrahydro-1H-pyrido[3,4-b]indole] | 5.8 nM |
| FC(F)(F)c1cnc(N2CCc3c([nH]c4ccc(Cl)cc34)C2c2cnc(N3CCOCC3)nc2)nn1 (stereo not drawn) [Compound 458, 6-chloro-1-[2-(morpholin-4-yl)pyrimidin-5-yl]-2-[6-(trifluoromethyl)-1,2,4-triazin-3-yl]-2,3,4,9-tetrahydro-1H-pyrido[3,4-b]indole] | 4.6 nM |
| Cc1nc(N2CCc3c([nH]c4ccc(Cl)cc34)[C@@H]2c2ccc(N3CCOCC3)nc2)nc(C(F)(F)F)n1 [Compound 465, (1S)-6-chloro-2-[4-methyl-6-(trifluoromethyl)-1,3,5-triazin-2-yl]-1-[6-(morpholin-4-yl)pyridin-3-yl]-2,3,4,9-tetrahydro-1H-pyrido[3,4-b]indole] | 0.6 nM |
| Cc1nc(N2CCc3c([nH]c4ccc(Cl)cc34)[C@@H]2c2cnc(N3CCOCC3)nc2)nc(C(F)(F)F)n1 [Compound 466, (1S)-6-chloro-2-[4-methyl-6-(trifluoromethyl)-1,3,5-triazin-2-yl]-1-[2-(morpholin-4-yl)pyrimidin-5-yl]-2,3,4,9-tetrahydro-1H-pyrido[3,4-b]indole] | 0.9 nM |
| Clc1ccc2[nH]c3c(c2c1)CCN(c1ncc(-c2ccccc2)cn1)[C@H]3c1cnc(N2CCOCC2)nc1 [Compound 472, (1S)-6-chloro-1-[2-(morpholin-4-yl)pyrimidin-5-yl]-2-(5-phenylpyrimidin-2-yl)-2,3,4,9-tetrahydro-1H-pyrido[3,4-b]indole] | 4.1 nM |
| FC(F)(F)c1ccnc(N2CCc3c([nH]c4ccc(Cl)cc34)[C@@H]2c2ccc(N3CCOCC3)nc2)n1 [Compound 473, (1S)-6-chloro-1-[6-(morpholin-4-yl)pyridin-3-yl]-2-[4-(trifluoromethyl)pyrimidin-2-yl]-2,3,4,9-tetrahydro-1H-pyrido[3,4-b]indole] | 1 nM |
| CSc1nc(N2CCc3c([nH]c4ccc(Cl)cc34)[C@@H]2c2cnc(N3CCN(C)CC3)nc2)nc(C(F)(F)F)n1 [Compound 474, (1S)-6-chloro-1-[2-(4-methylpiperazin-1-yl)pyrimidin-5-yl]-2-[4-(methylsulfanyl)-6-(trifluoromethyl)-1,3,5-triazin-2-yl]-2,3,4,9-tetrahydro-1H-pyrido[3,4-b]indole] | 2.1 nM |
| Clc1ccc2[nH]c3c(c2c1)CCN(c1nccc(-c2ccccc2)n1)C3c1cnc(N2CCOCC2)nc1 (stereo not drawn) [Compound 475, 6-chloro-1-[2-(morpholin-4-yl)pyrimidin-5-yl]-2-(4-phenylpyrimidin-2-yl)-2,3,4,9-tetrahydro-1H-pyrido[3,4-b]indole] | 116 nM |
| CN1CCN(c2nc(N3CCc4c([nH]c5ccc(Cl)cc45)[C@@H]3c3cnc(N4CCOCC4)nc3)nc(C(F)(F)F)n2)CC1 [Compound 478, (1S)-6-chloro-2-[4-(4-methylpiperazin-1-yl)-6-(trifluoromethyl)-1,3,5-triazin-2-yl]-1-[2-(morpholin-4-yl)pyrimidin-5-yl]-2,3,4,9-tetrahydro-1H-pyrido[3,4-b]indole] | 9.5 nM |
| CN1CCN(c2ncc([C@H]3c4[nH]c5ccc(Cl)cc5c4CCN3c3nc(N4CCN(C)CC4)nc(C(F)(F)F)n3)cn2)CC1 [Compound 479, (1S)-6-chloro-1-[2-(4-methylpiperazin-1-yl)pyrimidin-5-yl]-2-[4-(4-methylpiperazin-1-yl)-6-(trifluoromethyl)-1,3,5-triazin-2-yl]-2,3,4,9-tetrahydro-1H-pyrido[3,4-b]indole] | 66.1 nM |
| CN1CCN(c2ccc([C@H]3c4[nH]c5ccc(Cl)cc5c4CCN3c3nccc(C(F)(F)F)n3)cn2)CC1 [Compound 480, (1S)-6-chloro-1-[6-(4-methylpiperazin-1-yl)pyridin-3-yl]-2-[4-(trifluoromethyl)pyrimidin-2-yl]-2,3,4,9-tetrahydro-1H-pyrido[3,4-b]indole] | 3.2 nM |
| CN1CCN(c2ccc([C@H]3c4[nH]c5ccc(Cl)cc5c4CCN3c3nc(C(F)(F)F)cc(C(F)(F)F)n3)cn2)CC1 [Compound 481, (1S)-2-[4,6-bis(trifluoromethyl)pyrimidin-2-yl]-6-chloro-1-[6-(4-methylpiperazin-1-yl)pyridin-3-yl]-2,3,4,9-tetrahydro-1H-pyrido[3,4-b]indole] | 0.6 nM |
| FC(F)(F)c1cc(C(F)(F)F)nc(N2CCc3c([nH]c4ccc(-n5nccn5)cc34)C2c2cnc(N3CCOCC3)nc2)n1 (stereo not drawn) [Compound 482, 2-[4,6-bis(trifluoromethyl)pyrimidin-2-yl]-1-[2-(morpholin-4-yl)pyrimidin-5-yl]-6-(2H-1,2,3-triazol-2-yl)-2,3,4,9-tetrahydro-1H-pyrido[3,4-b]indole] | 0.8 nM |
| Cc1cnn(-c2ccc3[nH]c4c(c3c2)CCN(c2nc(C(F)(F)F)cc(C(F)(F)F)n2)C4c2cnc(N3CCOCC3)nc2)n1 (stereo not drawn) [Compound 483, 2-[4,6-bis(trifluoromethyl)pyrimidin-2-yl]-6-(4-methyl-2H-1,2,3-triazol-2-yl)-1-[2-(morpholin-4-yl)pyrimidin-5-yl]-2,3,4,9-tetrahydro-1H-pyrido[3,4-b]indole] | 8.5 nM |
